The values below come from patent US7268224B2, “Human glucocorticoid receptor 1A promoter and splice variants” (Board of Supervisors of Louisianna State University and …, priority 2000, dated 2007).

For series [1], the system named is hormone-resistant clones of human CEM-C7, T-ALL cells, or mouse SAK8 T-lymphoma cells. The conditions noted are these: hormone-resistant clones in culture; cited from earlier work.
For series [2], the system named is GR 1A3 exon-containing transcripts in CEM-C7 cells. Briefly: Northern blot of GR exon 1A transcripts after glucocorticoid treatment. In kind it is cell-based, human. The conditions noted are these: 1 μM, data not shown. The text has this:
Glucocorticoid hormone treatment is known to up-regulate the levels of both GR mRNA and GR protein in immature T-lymphocytes and in some T-lymphoblasts that undergo apoptosis following hormone treatment. See Denton et al., (1993); and L. P. Eisen et al., “Positive Regulation of the Glucocorticoid Receptor in Human T-Cells Sensitive to the Cytolytic Effects of Glucocorticoids,” J. Biol. Chem., vol. 263, pp. 12044-12048 (1988). The human CEM-C7 acute lymphoblastic leukemia (ALL) cell line has served as a model system for glucocorticoid-sensitive human T-cell ALL. See M. R. Norman and E. B. Thompson, “Characterization of a Glucocorticoid-Sensitive Human Lymphoid Cell Line,” Cancer Res., vol. 37, pp. 3785-3791 (1977). CEM-C7 cells were treated with 1 μM dexamethasone (a glucocorticoid analogue) for various periods of time, from 6 hr to 48 hr. RNA was then extracted, and northern blots were prepared and probed with the GR-1A-exon-specific probes (exon 1A1, exon 1A2, and exon 1A3; Table 1). […] Up-regulation of exon 1A1 and exon 1A2 transcripts was also observed (data not shown).

Series [3] relates to GR exon 1 transcripts in CEM-C7 cells. The series can be described thus: RT-PCR of GR exon 1 transcripts after hormone treatment, CEM-C7. The conditions noted are these: 1 μM.
In series [4] the test system is IRF-1 and IRF-2 protein levels in Jurkat cells. The series can be described thus: IRF protein levels in interferon-treated Jurkat cells. In kind it is cell-based, human. The conditions noted are these: data not shown. The text has this:
By identifying transcription factor binding sites in the 1A promoter and exon, we will determine whether activation of any of these factors will directly activate the hGR 1A promoter. […] See H. Harada et al., “Structurally Similar but Functionally Distinct Factors, IRF-1 and IRF-2, Bind to the Same Regulatory Elements of IFN and IFN-Inducible Genes,” Cell, vol. 58, pp. 729-739 (1989).

As for `Nc1ncn([C@@H]2O[C@H](CO)[C@@H](O)[C@H]2O)c(=O)n1` [5-azacytidine], the “sensitivity to glucocorticoid-mediated killing” value in series [1] is reported as “become stably sensitive to glucocorticoid-mediated killing”.
Take `C[C@@H]1C[C@H]2[C@@H]3CCC4=CC(=O)C=C[C@]4(C)[C@@]3(F)[C@@H](O)C[C@]2(C)[C@@]1(O)C(=O)CO` [dexamethasone]: the “exon 1A1 and exon 1A2 transcripts” value in series [2] is reported as “Up-regulation”. Further, in series [3], the “increase in exon 1A3-containing transcripts” value came out at 2.5 fold.
Turning to interferon-α, in series [4], the IRF-1 protein levels result is on record as “dramatic increase” and the IRF-2 protein levels result was “not IRF-2”.

B1: interferon-γ: interferon used to treat Jurkat cells (protein, UniProt P01579 24-161, looked up)
Interferon gamma: QDPYVKEAENLKKYFNAGHSDVADNGTLFLGILKNWKEESDRKIMQSQIVSFYFKLFKNFKDDQSIQKSVETIKEDMNVKFFNSNKKKRDDFEKLTNYSVTDLNVQRKAIHELIQVMAELSPAAKTGKRKRSQMLFRG
As for B1, in series [4], the IRF-1 protein levels entry is “dramatic increase” and the IRF-2 protein levels entry is listed as “not IRF-2”.
